In publication PMC9176662, “Design, synthesis, molecular modeling and biological evaluation of novel Benzoxazole-Benzamide conjugates via a 2-Thioacetamido linker as potential anti-proliferative agents, VEGFR-2 inhibitors and apoptotic inducers” (Journal of Enzyme Inhibition and Medicinal Chemistry, 2022):
Several values for one entry are separate records, joined by “and”; a condition that tells them apart may be missing. Identical values can stand only once.

Experiments:
VEGFR-2 Protein Kinase = molecular target: T1, VEGFR-2 Protein Kinase (Homo sapiens, UniProt P35968); assay: VEGFR-2 inhibitory activity (HTScan VEGF Receptor-2 Kinase Assay Kit, ELISA); type: biochemical; details: mean of three individual experiments
T1 construct: It includes active VEGFR-2 kinase; purchased HTScan VEGF Receptor-2 Kinase Assay Kit
Experimental: 2.2. VEGFR-2 Inhibitory activity
VEGFR-2 ELISA (Enzyme-Linked Immunosorbent Assay) kits (HTScan® VEGF Receptor-2 […]
phospho-tyrosine antibody) for detection of the phosphorylated form of the substrate peptide).
On a 96-well plate, a particular VEGFR-2 antibody was seeded and 100 μL of the normal solution or the tested compound tested was applied, incubated at room temperature for 2.5 h and washed. Then, 100 μL of the prepared biotin antibody was added, incubated for an additional 1 h at room temperature and washed. Following, 100 μL of streptavidin solution was added at room temperature, incubated for 45 minutes and then, 100 μL of TMB Substrate solution was applied and incubated at room temperature for 30 minutes. Finally, 50 μL stop solution was added and the absorption was measured at 450 nm instantly. The standard curve, the X -axis concentrations, and the Y-axis absorbance were drawn. […]

HCT-116 cells = assay: Cell cycle analysis by DNA flow cytometry, HCT-116; type: cell-based, human; details: HCT116, 24 h, compound at its IC50 (supplement: 10 μM); for %Pre-G1: control 4.52; for %G2-M: control 18.93; for %S: control 31.56; for %G0-G1: control 49.51
Experimental: It is clearly known that generally the cytotoxic agents exert their anti-proliferative effect via cell cycle arrest at a specific phase. In the present study, due to the excellent in-vitro anti-proliferative activity of conjugates 1 and 11 against both HCT-116 and MCF-7 cancer cell lines as well as their excellent VEGFR-2 inhibitory activities, cell cycle analysis have been carried out for both compounds. […]
2.3. Cell cycle analysis.
HCT-116 and MCF-7 cells were seeded at concentrations of 1 x 10^5 cells per well in a 6-well plate, and then incubated for 24 h. The cells were treated for 24 h with vehicles (0.1 percent DMSO) or 10 μM of compounds 1 or 11. Using ice-cold, 70 percent ethanol at 4 °C, cells were harvested and fixed for 12 h. Ethanol was removed, and the cells were washed by cold PBS.
Then, the cells were incubated in 0.5 mL of PBS containing 1 mg/mL Ranse for 30 min at 37 °C.
In the dark, the cells were stained with propidium iodide for 30 min. Flow cytometer was then used to detect contents of DNA [63]. […]

T1 sequence (P35968 20-1356): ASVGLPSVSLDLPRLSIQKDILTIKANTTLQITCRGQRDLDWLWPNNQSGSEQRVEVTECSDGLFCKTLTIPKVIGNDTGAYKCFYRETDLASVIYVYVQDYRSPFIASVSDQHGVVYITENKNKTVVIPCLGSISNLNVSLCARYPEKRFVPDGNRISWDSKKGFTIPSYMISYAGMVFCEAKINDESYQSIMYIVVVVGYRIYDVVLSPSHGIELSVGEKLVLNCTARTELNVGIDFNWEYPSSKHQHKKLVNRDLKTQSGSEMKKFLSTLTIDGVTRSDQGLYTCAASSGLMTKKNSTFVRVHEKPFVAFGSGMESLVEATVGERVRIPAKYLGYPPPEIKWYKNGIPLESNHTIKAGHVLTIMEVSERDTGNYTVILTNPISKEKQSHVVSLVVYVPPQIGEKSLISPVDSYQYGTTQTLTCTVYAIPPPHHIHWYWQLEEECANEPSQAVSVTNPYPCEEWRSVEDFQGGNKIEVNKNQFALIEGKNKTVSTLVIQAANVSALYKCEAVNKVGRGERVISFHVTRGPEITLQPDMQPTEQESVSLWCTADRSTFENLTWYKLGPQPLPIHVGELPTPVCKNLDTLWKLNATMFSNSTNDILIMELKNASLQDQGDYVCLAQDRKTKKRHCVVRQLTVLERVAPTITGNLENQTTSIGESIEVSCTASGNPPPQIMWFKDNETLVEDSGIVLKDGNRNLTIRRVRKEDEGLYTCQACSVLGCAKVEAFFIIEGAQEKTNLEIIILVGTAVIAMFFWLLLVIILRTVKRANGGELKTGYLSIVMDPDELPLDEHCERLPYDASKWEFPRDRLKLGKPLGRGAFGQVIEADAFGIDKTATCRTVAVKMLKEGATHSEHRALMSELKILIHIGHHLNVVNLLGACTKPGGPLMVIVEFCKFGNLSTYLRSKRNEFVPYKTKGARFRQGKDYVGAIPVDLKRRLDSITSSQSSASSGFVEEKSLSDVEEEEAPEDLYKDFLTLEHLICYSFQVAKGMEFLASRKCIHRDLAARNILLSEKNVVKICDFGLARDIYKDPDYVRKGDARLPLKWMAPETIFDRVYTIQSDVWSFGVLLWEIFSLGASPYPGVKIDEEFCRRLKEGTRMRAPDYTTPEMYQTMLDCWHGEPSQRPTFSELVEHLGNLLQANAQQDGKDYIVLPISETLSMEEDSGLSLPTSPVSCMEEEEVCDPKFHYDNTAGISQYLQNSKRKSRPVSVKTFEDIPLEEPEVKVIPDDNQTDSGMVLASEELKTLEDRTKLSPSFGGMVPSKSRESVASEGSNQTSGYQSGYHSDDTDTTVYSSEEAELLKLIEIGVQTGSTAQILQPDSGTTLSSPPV

IC50 (VEGFR-2 Protein Kinase) | Structure (SMILES) | %Pre-G1 (HCT-116 cells) | %G2-M (HCT-116 cells) | %S (HCT-116 cells) | %G0-G1 (HCT-116 cells)
360 nM and 361 nM | O=C(CSc1nc2cc(Cl)ccc2o1)Nc1ccc(C(=O)Nc2ccc(Cl)cc2)cc1 [Compound 11] | 17.41% | 28.44% | 26.19% | 45.37%
270 nM and 268 nM | O=C(CSc1nc2ccccc2o1)Nc1ccc(C(=O)NC2CCCCC2)cc1 [Compound 1] | 15.36% | 24.41% | 33.25% | 42.34%
